Measurements taken from patent US12108762B2, “Methods of controlling crop pests using aromatic amide insect repellents, methods of making aromatic amide insect repellents, and novel aromatic amide insect repellents” (priority 2020, dated 2024).

Legend:
mosquito = mosquito repellent; cited from earlier work
Drosophila melanogaster = assay: Habituation assay (prior exposure, then olfactory and gustatory screens); format: in vivo
Procedure: In the gustatory assay, the consumption of sugar (from a solution in a gel) treated at varying concentrations of the present repellent compounds was compared to the consumption of control-treated sugar. For the habituation assay, flies were tested over repeated exposures to the present repellent compounds to measure changes in behavioral preference for the compounds.
Flies were continuously monitored throughout their lifetime. In this assay, 3- to 5-day-old flies (70 male and 70 female) were selected and transferred to an empty fly food container 320 (FIG. 9). The polystyrene foam cap 310 was treated with 50 μL of 25% by weight of the present aromatic amide repellent in DMSO. A thin porous material 330 was placed around the treated cap 310, with a gap between the cap 310 and the material 330 so that the flies cannot touch the treated cap 310, but can only smell it. […] After the 20-hour period, the flies were screened in the olfactory assay and gustatory assays above. In the olfactory assay, the number of flies in the trap, the number of flies outside the trap, and the number of flies that died outside the trap were counted as described herein, and in the gustatory assay, the color of the flies' abdomens were determined and counted, as described herein.
The different assays assigned results as follows. For the single-choice olfactory assay, the numbers of flies were counted according to (1) those that entered the trap, (2) those that stayed outside the trap and lived, and (3) those that died outside the trap. For the two-choice olfactory assay, the numbers of flies were counted according to (1) those that entered the control trap, (2) those that entered the trap containing the repellent, (3) those that stayed outside of both traps and lived, and (4) those that died outside the traps. For the gustatory assay, the numbers of flies were counted according to those that had (1) a red-colored abdomen, (2) a blue-colored abdomen, (3) a purple abdomen, and (4) no added color to their abdomen. A nonparametric Mann-Whitney U test was used to compare the statistical differences between assays using DEET and the same assays using one of the present repellents for all trials.

[1] = tested on: odorant receptor CquiOR136; conditions: southern house mosquito; cited from earlier work

CCN(CC)C(=O)c1cccc(C)c1 [DEET, N,N-diethyl-m-toluamide, reference compound]
duration of efficacy (mosquito): five
habituation of fruit flies, overall (olfactory and gustatory assays) (Drosophila melanogaster; post-exposure): demonstrated habituation in at least one assay
repellency after prior exposure, gustatory assay (Drosophila melanogaster; prior exposure 25% by weight, gustatory screen at 5 mM): significantly less repellency
repellency after prior exposure, 2-choice olfactory assay (Drosophila melanogaster; prior exposure to 25% by weight repellent (18-hour period as printed elsewhere in the source)): statistically similar
affinity for odorant receptor [1]: showing an affinity
